Results: the supplement of paper PMC10307832

Legend:
Experiment in all cases: relative viability (nuclei count vs DMSO), 5 days (fraction); higher = more cells survive
Lestaurtinib + Foretinib = compound: C[C@]12O[C@H](C[C@]1(O)CO)n1c3ccccc3c3c4c(c5c6ccccc6n2c5c31)CNC4=O [Lestaurtinib] + COc1cc2c(Oc3ccc(NC(=O)C4(C(=O)Nc5ccc(F)cc5)CC4)cc3F)ccnc2cc1OCCCN1CCOCC1 [Foretinib] (partner 0.25 µM)
Outline: (§1)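 Five library-drug doses in √10 steps were combined with a fixed anchor-drug dose, or a single drug was given alone, by pin tool to lung cancer cell lines in 1536-well plates the day after seeding. Nuclei were stained and counted after 5 days. Relative viability is the nuclei count in treated wells over that in vehicle wells, taken as the median of duplicate plates.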

Lestaurtinib + Alpelisib = compound: C[C@]12O[C@H](C[C@]1(O)CO)n1c3ccccc3c3c4c(c5c6ccccc6n2c5c31)CNC4=O [Lestaurtinib] + Cc1nc(NC(=O)N2CCC[C@H]2C(N)=O)sc1-c1ccnc(C(C)(C)C(F)(F)F)c1 [Alpelisib] (partner 2 µM)
Outline: as §1

TPCA-1 + Navitoclax = compound: C1=CC(=CC=C1C2=CC(=C(S2)NC(=O)N)C(=O)N)F [TPCA-1] + CC1(C)CCC(c2ccc(Cl)cc2)=C(CN2CCN(c3ccc(C(=O)NS(=O)(=O)c4ccc(N[C@H](CCN5CCOCC5)CSc5ccccc5)c(S(=O)(=O)C(F)(F)F)c4)cc3)CC2)C1 [Navitoclax] (partner 0.5 µM)
Outline: as §1

[1] = compound: C1/C(=C\C2=CC=CS2)/C(=O)/C(=C/C3=CC=CS3)/C1 + C[C@]1(O)C[C@@H](c2nc(-c3ccc4ccc(-c5ccccc5)nc4c3)c3c(N)nccn32)C1 [Linsitinib] (partner 1 µM)
Outline: as §1

Row | Cell Line | relative viability (Lestaurtinib + Foretinib; first compound 0.005 µM) | relative viability (Lestaurtinib + Foretinib; first compound 0.01581 µM) | relative viability (Lestaurtinib + Foretinib; first compound 0.05 µM) | relative viability (Lestaurtinib + Foretinib; first compound 0.1581 µM) | relative viability (Lestaurtinib + Foretinib; first compound 0.5 µM) | relative viability (Lestaurtinib + Alpelisib; first compound 0.005 µM) | relative viability (Lestaurtinib + Alpelisib; first compound 0.01581 µM) | relative viability (Lestaurtinib + Alpelisib; first compound 0.05 µM) | relative viability (Lestaurtinib + Alpelisib; first compound 0.1581 µM) | relative viability (Lestaurtinib + Alpelisib; first compound 0.5 µM) | relative viability (TPCA-1 + Navitoclax; first compound 0.04 µM) | relative viability (TPCA-1 + Navitoclax; first compound 0.1265 µM) | relative viability (TPCA-1 + Navitoclax; first compound 0.4 µM) | relative viability (TPCA-1 + Navitoclax; first compound 1.265 µM) | relative viability (TPCA-1 + Navitoclax; first compound 4 µM) | relative viability ([1]; first compound 0.2 µM) | relative viability ([1]; first compound 0.6325 µM) | relative viability ([1]; first compound 2 µM) | relative viability ([1]; first compound 6.325 µM) | relative viability ([1]; first compound 20 µM)
1 | SW 1573 | 0.895 | 0.889 | 0.826 | 0.668 | 0.518 | 0.822 | 0.841 | 0.401 | 0.568 | 0.379 | 1.14 | 0.866 | 0.916 | 0.962 | 0.948 | 0.765 | 0.839 | 0.959 | 0.744 | 0.829
2 | SK-MES-1 | 0.906 | 0.866 | 0.599 | 0.33 | 0.334 | 0.862 | 0.337 | 0.332 | 0.302 | 0.229 | 1.3 | 1.07 | 1.22 | 1.16 | 0.797 | 1.05 | 1.1 | 0.992 | 0.818 | 0.982
3 | NCI-H1755 | 0.891 | 0.938 | 0.788 | 0.494 | 0.412 | 1 | 0.927 | 0.571 | 0.349 | 0.202 | 0.998 | 0.95 | 0.949 | 0.847 | 0.696 | 1.06 | 1.07 | 1.04 | 0.818 | 0.939
4 | NCI-H2023 | 1.02 | 0.758 | 0.843 | 1.01 | 0.164 | 0.674 | 0.616 | 0.536 | 0.488 | 0.384 | 1.14 | 0.98 | 1.04 | 0.938 | 0.912 | 0.794 | 0.684 | 0.668 | 0.731 | 0.679
5 | LC-2-ad | 0.946 | 0.903 | 0.817 | 0.647 | 0.324 | 0.961 | 0.829 | 0.354 | 0.227 | 0.139 | 0.361 | 0.377 | 0.414 | 0.357 | 0.11 | 0.832 | 0.838 | 0.875 | 0.69 | 0.847
6 | NCI-H1666 | 1.1 | 1.07 | 1.6 | 1.02 | 0.595 | 0.915 | 1.05 | 1.02 | 0.493 | 0.442 | 1.12 | 0.848 | 1.03 | 0.943 | 1.05 | 0.828 | 0.762 | 0.776 | 0.481 | 0.825
7 | EBC-1 | 0.109 | 0.105 | 0.114 | 0.11 | 0.112 | 0.851 | 0.948 | 0.658 | 0.624 | 0.298 | 0.355 | 0.397 | 0.564 | 0.351 | 0.293 | 0.904 | 0.973 | 0.887 | 0.801 | 0.942
8 | 201T | 1.13 | 1.21 | 1.17 | 1.14 | 0.356 | 1.04 | 1.03 | 1.02 | 0.933 | 0.693 | 1.2 | 1.17 | 1.19 | 1.2 | 1.25 | 1.08 | 0.989 | 1.16 | 0.9 | 0.996
